Laboratory results reported in patent US20250092345A1, “INTER ORGAN PLATFORM FOR MICROPHYSIOLOGICAL SYSTEM ON A CHIP” (THE TRUSTEES OF COLUMBIA UNIVERSITY IN THE CITY OF NEW YORK, priority 2020, published 2025).

Columns and labels:
[1] = test system: engineered cardiac tissues; assay: Engineered cardiac tissues in isolation, linsitinib cardiotoxicity; type: cell-based, human; conditions: after linsitinib exposure, isolated
Excerpt: After establishing the capability of TE-ES tumors to model drug efficacy, we evaluated the ability of cardiac tissues to determine the cardiotoxicity of linsitinib. Cardiac tissues were exposed to the same therapeutic concentration of linsitinib as bone tumors. […] Cardiotoxicity of linsitinib has been observed in clinical trials of other types of cancer, with patients presenting proarrhythmic events, like tachycardia (3.75-5% of patients) and atrial fibrillation (3.75-5%). We observed higher beat frequency and higher rate of proarrhythmic events per beat (around 36%) than in clinical studies (FIG. 32B and FIG. 32C). […]
Cardiac tissues were studied using caffeine (50 mM in water; Sigma-Aldrich), amiodarone hydrochloride (2.418 µM in DMSO; Sigma-Aldrich), isoproterenol hydrochloride (a series of drug concentrations in water; Sigma-Aldrich) or doxorubicin hydrochloride (1 µM in DMSO; Sigma-Aldrich), all diluted in RPMI Medium 1640 supplemented with B-27[…]. Response to isoproterenol was analyzed 10 minutes after exposure to […] isoproterenol hydrochloride, diluted in RPMI Medium […] supplemented with B27[…]. […]
To measure the cardiac contractility online, we took contractility videos of the tissues that were analyzed using the native MATLAB code we previously developed. Tissue contractility was measured by tracking the change in tissue area as a function of time. […]

[2] = cited from earlier work

C[C@]1(O)C[C@@H](c2nc(-c3ccc4ccc(-c5ccccc5)nc4c3)c3c(N)nccn32)C1 [linsitinib]
inotropic response to subsequent isoproterenol [1]: not observed
clinical outcome in ES ([2]; Phase II clinical trial, no patients completing the trial): unable to stop progression of ES
atrial fibrillation ([2]; clinical trials of other types of cancer): 3.75-5%
